Results published in patent publication US20080027001A1, “NOGO RECEPTOR FUNCTIONAL MOTIFS, PEPTIDE MIMETICS, AND MUTATED FUNCTIONAL MOTIFS RELATED THERETO, AND METHODS OF USING THE SAME” (priority 2006, published 2008).
“And” between values parts separate entries of the source, which are not always exact repeats. Equal values may be shown once. “Also recorded” adds a separate entry of the source. Bridges are numbered along the chain shown (N, C = ends).

Assays:
cerebellar neurons [1] = experiment: Neurite outgrowth assay, inhibition by soluble MAG-Fc; type: cell-based, rat; settings: for efficacy of peptide relative to NRL2b over a range of concentrations / antagonism of inhibitory activity of MAG-Fc: MAG-Fc 20 μg/ml; for efficacy of peptide relative to NRL2b over a range of concentrations: FIG. 6C, 6D, position 2 effect at 25-50 μg/ml; for antagonism of MAG-mediated inhibition of axonal growth / effect on MAG-Fc-suppressed neurite outgrowth: peptide 100 μg/ml; for antagonism of MAG-mediated inhibition of axonal growth: MAG-Fc 20 μg/ml (FIG. 6B); for effect on MAG-Fc-suppressed neurite outgrowth: MAG-Fc 25 μg/ml (FIG. 5A); for peptide concentration with maximal effects on neurite outgrowth / peptide concentration with significant effects on neurite outgrowth: MAG-Fc 20 μg/ml (FIG. 6A); for antagonism of inhibitory activity of MAG-Fc: peptide 50 μg/ml (60 μM)
Description: (§1) Cerebellar neurons isolated from postnatal day ⅔ rat pups were cultured over monolayers of 3T3 cells (Doherty et al. (1991) Neuron 6(2):247-58) essentially as previously described (Williams et al. (1994) Neuron 13(3):583-94). Monolayers were established by seeding ˜80,000 cells into individual chambers of an eight-chamber tissue culture slide coated with poly-L-lysine and fibronectin. The cell lines, and monolayers, were maintained in Dulbecco's modified Eagle's medium supplemented with 10% fetal calf serum (FCS). Cocultures were established by removing the media from the monolayers and seeding ˜6000 dissociated cerebellar neurons into each well in SATO medium (modified from Doherty et al. (1990) Neuron 5(2):209-19; Dulbecco's modified Eagle's medium supplemented with 2% FBS, 33% bovine albumin, 0.62 μg/ml progesterone, 161 μg/ml putrescine, 4 μg/ml L-thyroxine, 0.387 μg/ml selenium, and 3.37 μg/ml tri-iodo-thyronine (components from Sigma-Aldrich, St. Louis, Mo.)). Monolayers were established for 24 hours prior to addition of the neurons and the cultures were maintained for ˜23-27 hr. Following careful fixation with 4% paraformaldehyde, the neurons were stained with a GAP-43 antibody, and the mean length of the longest neurite per cell was measured for ˜120-150 neurons, again as previously described (Williams et al. (1994) supra). For neurite outgrowth on substrate-bound MAG, 96-well plates were coated with a thin layer of nitrocellulose (Bio-Rad, Hercules, Calif.) before incubating with 1 μg/ml of MAG(d1-5) (a chimeric construct containing domains 1-5 of the extracellular portion of MAG) at 4° C. overnight. Wells were subsequently coated with 17 μg/ml of poly-D-lysine (Sigma, St. Louis, Mo.), followed by incubation in Dulbecco's modified Eagle's medium containing 10% FCS. Cerebellar granule neurons were dissociated and seeded at a density of 10^4 cells per well. Cells were cultured for 18-20 h before being fixed with 4% paraformaldehyde and stained with a neuronal-specific anti-III-tubulin antibody, Tuj 1 (Covance, Emeryville, Calif.). The average of total neurite lengths from each neuron was measured automatically by the MetaXpress Neurite Outgrowth module (Molecular Devices, Sunnyvale, Calif.) from at least 200 neurons per well, in triplicate wells per experiment. Results were repeated independently more than three times.
(§2) Synthetic peptides were all obtained from a commercial supplier (Multiple Peptide Systems, San Diego, Calif.). All peptides were purified to the highest grade by reverse-phase HPLC and obtained at the highest level of purity (>97%). With all peptides, there was no indication of higher molecular weight species. Where peptide sequences are underlined, this denotes a peptide that has been cyclized via a disulfide bond between the given cysteine residues. All peptides were acetylated (e.g., denoted with “N-Ac-”) and amide blocked (e.g., denoted with “—NH2”). Recombinant MAG-Fc chimera was obtained from R&D Systems (Minneapolis, Minn.) and used at final concentrations ranging from 5-25 μg/ml. The monoclonal antibody to GT1b (clone GMR5) was obtained from Seikagaku America (Falmouth, Mass.) and was used at a final concentration of 20 μg/ml. All reagents were diluted into the coculture media and, in general, added to the cultures just prior to the plating of the neurons. GT1b and GM1 were obtained as gifts from Dr. Gino Toffano (Libero, Italy) and University of Milan, and asialo-GM1 was obtained from Sigma (St. Louis, Mo.). The recombinant NgR1(310)-fc and MAG(d1-5) chimeras were expressed and purified in-house. Pharmacological reagents were obtained from Calbiochem (La Jolla, Calif.) and/or Sigma. For reagents used in cell-surface NgR binding assays, please see Examples 1.5 and 1.7. For reagents used in the cell surface p75NTR-NgR-AP binding assay, please see Example 1.13.
(§3) In contrast, a soluble MAG-Fc chimera inhibits neurite outgrowth in a manner that depends upon both ganglioside and NgR function. […]

NgR1(310)-fc = biological target: T1, NgR1(310)-fc (Homo sapiens, UniProt Q9BZR6); experiment: Analytical ultracentrifugation (sedimentation velocity), wild type receptor; type: binding; settings: ganglioside 0 to 48 μM (FIG. 3A-C)
T1 construct: made in house; host or cells: mammalian expression vector (pSMED2)
From the text: Human Nogo Receptor 1 (NgR1)(310)-fc point mutants (FRG-1 (R151E); FRG-2 (R279E); FRG-3 (R199E), and FRG-4 (R151E/R279E/R199E)) were constructed by Genewiz (North Brunswick, N.J.) using their site-directed mutagenesis technology. The template used to construct all the described mutants was wild type human NgR1(310)-fc (SEQ ID NO:59), which was generated by fusing a nucleotide sequence corresponding to the first 310 amino acid of Human Nogo Receptor 1 to a human Fc fragment in a mammalian expression vector (the sequence of wild type NgR1(310)-fc and the expression vector is set forth in SEQ ID NO:60 and a schematic of the expression vector is shown in FIG. 11). […]
Sedimentation velocity experiments were performed on a Beckman XLI/XLA analytical ultracentrifuge. […] Scans were recorded at 20° C. with a rotor speed of 35,000 rpm, and the signal was detected at 230 nm with a spacing of 0.006 in the continuous mode. Sedimentation profiles were analyzed by the program Sedfit (Schuck (2000) Biophys. J. 78:1606-19) to obtain the sedimentation coefficient distributions. The solvent density (1.006) and partial specific volume (0.72) were calculated using the program Sednterp (Laue et al. (1992) Analytical Ultracentrifugation in Biochemistry and Polymer Science (Harding, S. E., Towe, A. J. and Horton, J. C., eds.) pp. 90-125, Royal Society of Chemistry, Cambridge, U.K). […]

cerebellar neurons [2] = experiment: Neurite outgrowth assay, control media (basal outgrowth); type: cell-based, rat; settings: for effect on basal neurite outgrowth: peptide 100 μg/ml, without MAG-Fc
Description: as §1, §2, §3

cerebellar neurons [3] = experiment: Neurite outgrowth assay, inhibition by GT1b antibody; type: cell-based, rat; settings: peptide 100 μg/ml; antibody tested at up to 40 μg/ml
Description: Cerebellar neurons isolated from postnatal day ⅔ rat pups were cultured over monolayers of 3T3 cells (Doherty et al. (1991) Neuron 6(2):247-58) essentially as previously described (Williams et al. (1994) Neuron 13(3):583-94). Monolayers were established by seeding ˜80,000 cells into individual chambers of an eight-chamber tissue culture slide coated with poly-L-lysine and fibronectin. The cell lines, and monolayers, were maintained in Dulbecco's modified Eagle's medium supplemented with 10% fetal calf serum (FCS). […] Following careful fixation with 4% paraformaldehyde, the neurons were stained with a GAP-43 antibody, and the mean length of the longest neurite per cell was measured for ˜120-150 neurons, again as previously described (Williams et al. (1994) supra). […] The average of total neurite lengths from each neuron was measured automatically by the MetaXpress Neurite Outgrowth module (Molecular Devices, Sunnyvale, Calif.) from at least 200 neurons per well, in triplicate wells per experiment. […]

[4] = without MAG-Fc (data not shown)

T1 sequence (Q9BZR6 with tags, fused parts or gaps limits assumed): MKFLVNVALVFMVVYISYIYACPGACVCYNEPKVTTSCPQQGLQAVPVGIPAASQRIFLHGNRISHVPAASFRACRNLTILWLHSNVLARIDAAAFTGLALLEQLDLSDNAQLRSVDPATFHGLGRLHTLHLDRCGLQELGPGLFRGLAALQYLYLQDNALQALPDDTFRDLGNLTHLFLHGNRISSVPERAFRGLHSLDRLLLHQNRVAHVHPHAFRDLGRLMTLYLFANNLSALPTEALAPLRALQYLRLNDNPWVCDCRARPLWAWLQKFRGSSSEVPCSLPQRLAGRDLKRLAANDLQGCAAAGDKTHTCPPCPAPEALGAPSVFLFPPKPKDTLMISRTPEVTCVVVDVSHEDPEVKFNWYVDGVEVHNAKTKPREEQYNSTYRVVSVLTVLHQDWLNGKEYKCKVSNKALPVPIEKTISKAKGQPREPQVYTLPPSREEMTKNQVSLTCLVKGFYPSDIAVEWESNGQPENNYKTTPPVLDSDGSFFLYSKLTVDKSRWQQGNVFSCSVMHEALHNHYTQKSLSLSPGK

N-Ac-CQKARGC-NH2 (disulfide 1-7 (inferred))
efficacy of peptide relative to NRL2b over a range of concentrations (cerebellar neurons [1]): reduced efficacy by about two-fold
antagonism of MAG-mediated inhibition of axonal growth (cerebellar neurons [1]): as effective as NRL2b

N-Ac-CQKFRAC-NH2 (disulfide 1-7 (inferred))
antagonism of MAG-mediated inhibition of axonal growth (cerebellar neurons [1]): ineffective

asialo-GM1
interaction with NgR1(310)-fc (shift of sedimentation coefficient) (NgR1(310)-fc): did not interact; also recorded: No change in sedimentation coefficient

N-Ac-CLQKFRGSSC-NH2 (disulfide 1-10 (inferred)) [NRL2]
effect on basal neurite outgrowth (cerebellar neurons [2]): no effect
effect on neurite outgrowth in control media (cerebellar neurons [2]; tested at up to 200 μg/ml): no significant effect
peptide concentration at which response reaches plateau (cerebellar neurons [1]; MAG-Fc 25 μg/ml (FIG. 5B)): ~45 µM
peptide concentration with near maximal inhibitory activity (cerebellar neurons [1]; MAG-Fc present): ~45 µM
effect on MAG-Fc-suppressed neurite outgrowth (cerebellar neurons [1]): failed to substantially inhibit neurite outgrowth
antagonism of GT1b antibody inhibition of neurite outgrowth (cerebellar neurons [3]): fully inhibited the response; also recorded: failed to inhibit neurite outgrowth

N-Ac-CAGRDLKRC-NH2 (disulfide 1-9 (inferred)) [NRL4]
effect on basal neurite outgrowth (cerebellar neurons [2]): no effect
effect on MAG-Fc-suppressed neurite outgrowth (cerebellar neurons [1]): no effect

N-Ac-CYNEPKVTC-NH2 (disulfide 1-9 (inferred)) [NRL1]
effect on basal neurite outgrowth (cerebellar neurons [2]): no effect
effect on MAG-Fc-suppressed neurite outgrowth (cerebellar neurons [1]): no effect

N-Ac-CQKFRGC-NH2 (disulfide 1-7 (inferred)) [NRL2b]
effect on neurite outgrowth in control media (cerebellar neurons [2]; [4]): no effect
peptide concentration with maximal effects on neurite outgrowth (cerebellar neurons [1]): 50 μg/ml and 60 μM
peptide concentration with significant effects on neurite outgrowth (cerebellar neurons [1]): 25 μg/ml and 30 μM
antagonism of inhibitory activity of MAG-Fc (cerebellar neurons [1]): effectively antagonized

N-Ac-CQKFAGC-NH2 (disulfide 1-7 (inferred))
antagonism of MAG-mediated inhibition of axonal growth (cerebellar neurons [1]): ineffective

N-Ac-CQAFRGC-NH2 (disulfide 1-7 (inferred))
efficacy of peptide relative to NRL2b over a range of concentrations (cerebellar neurons [1]): no obvious effect on the efficacy of the peptide
antagonism of MAG-mediated inhibition of axonal growth (cerebellar neurons [1]): as effective as NRL2b

QKFRG (listed as Homo sapiens)
antagonism of MAG-mediated inhibition of axonal growth (cerebellar neurons [1]): did not antagonize

N-Ac-CKFRGSC-NH2 (disulfide 1-7 (inferred)) [NRL2a]
effect on neurite outgrowth in control media (cerebellar neurons [2]; [4]): no effect
peptide concentration with maximal effects on neurite outgrowth (cerebellar neurons [1]): 50 μg/ml and 60 μM
peptide concentration with significant effects on neurite outgrowth (cerebellar neurons [1]): 25 μg/ml and 30 μM
antagonism of inhibitory activity of MAG-Fc (cerebellar neurons [1]): effectively antagonized

N-Ac-CSLPQRLAC-NH2 (disulfide 1-9 (inferred)) [NRL3]
effect on basal neurite outgrowth (cerebellar neurons [2]): no effect
effect on MAG-Fc-suppressed neurite outgrowth (cerebellar neurons [1]): no effect
